Measured values taken from PMC4777244, “Activation of transient receptor potential ankyrin 1 induces CGRP release from spinal cord synaptosomes” (Pharmacology Research & Perspectives, 2015).
Where “and” joins values, the source holds several entries; their conditions need not be identical. Identical values can stand only once. Entries after “also recorded” stand apart in the source; their conditions may differ. Counter-ions that a name gives are not always drawn. Like-named read-outs stand apart in the source and are kept apart here.

How the values were obtained:
[1] = target: T1, TRPA1 (Rattus norvegicus, UniProt Q6RI86); test: cell-based
T1 construct: TRPA1 natively expressed on the central terminals of dorsal root ganglion neurons; from tissue; host or cells: lumbar spinal cord homogenate (synaptosomes) of adult male Sprague Dawley rats

[2] = tested on: recombinantly‐expressed TRPA1 channels; conditions: cited from earlier work
[3] = tested on: spinal cord synaptosomes; test: KCl (depolarization)-evoked CGRP release from rat spinal cord homogenate, ELISA; assay type: cell-based; conditions: for CGRP release over basal release: n = 3
[4] = tested on: voltage‐gated calcium channels (VGCCs); assay type: cell-based, rat
[5] = tested on: T‐type VGCCs; parameters: method as in Martin et al. 2000; conditions: ref Martin et al. 2000; cited from earlier work
[6] = tested on: voltage‐gated calcium channels (VGCCs); assay type: cell-based, rat; remark: listed apart in the source
[7] = tested on: TRPM3; parameters: method as in Wagner et al. 2008; conditions: ref Wagner et al. 2008; read-out: EC50 for activation of TRPM3; cited from earlier work

T1 sequence (Q6RI86 whole entry): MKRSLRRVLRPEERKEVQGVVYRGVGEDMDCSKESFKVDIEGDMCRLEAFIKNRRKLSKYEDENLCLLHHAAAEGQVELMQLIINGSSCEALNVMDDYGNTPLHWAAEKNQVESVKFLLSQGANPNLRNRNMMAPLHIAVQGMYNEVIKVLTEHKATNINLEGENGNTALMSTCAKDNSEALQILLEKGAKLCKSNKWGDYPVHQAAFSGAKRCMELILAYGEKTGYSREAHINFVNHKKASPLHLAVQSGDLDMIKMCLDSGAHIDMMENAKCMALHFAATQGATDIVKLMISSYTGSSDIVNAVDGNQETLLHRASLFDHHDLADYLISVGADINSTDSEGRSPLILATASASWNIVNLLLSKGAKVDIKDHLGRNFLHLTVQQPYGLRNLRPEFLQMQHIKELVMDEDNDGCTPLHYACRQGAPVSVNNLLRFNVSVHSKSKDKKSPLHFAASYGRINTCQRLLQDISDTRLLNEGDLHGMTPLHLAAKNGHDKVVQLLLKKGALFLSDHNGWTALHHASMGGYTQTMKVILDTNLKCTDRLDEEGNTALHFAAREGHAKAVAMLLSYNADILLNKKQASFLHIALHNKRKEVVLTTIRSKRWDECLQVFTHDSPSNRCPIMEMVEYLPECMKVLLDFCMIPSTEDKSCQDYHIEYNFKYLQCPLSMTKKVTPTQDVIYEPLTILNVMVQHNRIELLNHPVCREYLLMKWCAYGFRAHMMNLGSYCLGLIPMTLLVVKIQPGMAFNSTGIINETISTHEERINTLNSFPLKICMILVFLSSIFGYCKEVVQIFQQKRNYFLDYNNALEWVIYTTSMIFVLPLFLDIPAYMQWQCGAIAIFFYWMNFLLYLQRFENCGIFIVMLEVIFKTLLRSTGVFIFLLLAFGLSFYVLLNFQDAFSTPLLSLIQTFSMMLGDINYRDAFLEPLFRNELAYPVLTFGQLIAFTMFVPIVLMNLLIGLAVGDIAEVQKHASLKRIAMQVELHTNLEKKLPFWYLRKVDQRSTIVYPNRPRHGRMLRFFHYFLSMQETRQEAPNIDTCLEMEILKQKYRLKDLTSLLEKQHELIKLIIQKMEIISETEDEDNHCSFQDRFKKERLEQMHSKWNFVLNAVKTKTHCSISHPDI

With CCCCCC(O)/C=C/C=O (stereo not shown) [4‐HNE, 4‐hydroxynonenal] the EC50 ([1]; read-out: EC50 of CGRP release) was 17.4 ± 0.68 µM.

In the case of CCCCCC(=O)C=CC=O [4‐ONE, 4‐oxo‐2‐nonenal], the EC50 ([2]; ref Taylor‐Clark et al. 2008, read-out: previously reported EC50 value) is given as ~2 µM and the EC50 ([1]; rat spinal cord homogenate, ELISA, mean ± SEM, read-out: EC50 of CGRP release) is given as 63.8 µM and ~64 µM.

For C=CCN=C=S [AITC, allyl‐isothiocyanate], the “AITC-induced CGRP release” value [1] was 42 ± 11 % of 40 mmol/L KCl‐evoked release.

For CC(=C\c1ccc(Cl)cc1)/C(C)=N/O [AP18], the “effect on CGRP release induced by 40 mmol/L and 60 mmol/L KCl” value ([3]; 50 μmol/L AP18) was “no effect”, the “AITC-induced CGRP release in the presence of AP18” value ([1]; 50 μmol/L AP18, 100 μmol/L AITC, dorsal homogenate) was 8 ± 5 % of 40 mmol/L KCl‐evoked release and the “cinnamaldehyde-evoked CGRP release in the presence of AP18” value ([1]; 50 μmol/L AP18, 100 μmol/L cinnamaldehyde, dorsal homogenate) was −1 ± 3 % of 40 mmol/L KCl‐evoked release.

For [Cl-].[K+] [KCl], the “CGRP release evoked by 40 mmol/L KCl, absence of morphine” value ([3]; 40 mmol/L KCl, dorsal homogenate, morphine experiment, n = 4) was 77 ± 7 % over basal release, the “CGRP release over basal release” value ([3]; 40 mmol/L KCl, dorsal spinal cord homogenate, dorsal/ventral experiment) was 67 ± 9 % over basal release and the “CGRP release over basal release” value ([3]; 40 mmol/L KCl, ventral spinal cord homogenate) was 6 ± 4 % over basal release. The “CGRP release evoked by 60 mmol/L KCl, absence of morphine” value ([3]; 60 mmol/L KCl, dorsal homogenate, morphine experiment, n = 4) was 131 ± 17 % over basal release.

In the case of O=C/C=C/c1ccccc1 [cinnamaldehyde], the “cinnamaldehyde-evoked CGRP release” value ([1]; 100 μmol/L cinnamaldehyde, dorsal homogenate, absence of AP18) is reported as 39 ± 8 % of 40 mmol/L KCl‐evoked release, the “CGRP release over basal release” value ([1]; 100 μmol/L cinnamaldehyde, dorsal spinal cord homogenate, n = 3) is reported as 14 ± 5 % over basal release and the “CGRP release over basal release” value ([1]; 100 μmol/L cinnamaldehyde, ventral spinal cord homogenate, n = 3) is reported as 0 ± 1 % over basal release. For the same compound, the “response to 1000 μmol/L cinnamaldehyde in Ca2+ free solutions as % of the response in Ca2+ containing solutions” value ([1]; 1000 μmol/L, Ca2+ free, 1 mmol/L EGTA, mean ± SEM, n = 3) was 18 ± 6% and the EC50 ([1]; EC50 of CGRP release, rat spinal cord homogenate, ELISA, mean ± SEM) was 54.8 ± 5.84 µM.

For COCC(=O)O[C@]1(CCN(C)CCCc2nc3ccccc3[nH]2)CCc2cc(F)ccc2[C@@H]1C(C)C [mibefradil dihydrochloride], the “decrease of high potassium-induced CGRP release” value ([4]; 40 mmol/L KCl, mibefradil dihydrochloride 10 μmol/L, cocktail) was ~ 50%, the “effect on 40 mmol/L KCl-induced CGRP release” value ([4]; nifedipine 5 μmol/L, ω‐conotoxin MVIIC 200 nmol/L, mibefradil dihydrochloride 10 μmol/L, cocktail) was “significantly decreased” and the “depolarization-induced CGRP release in the presence of inhibitor” value ([4]; ω‐conotoxin MVIIC 1 μmol/L, mibefradil dihydrochloride 10 μmol/L, cocktail (5 μmol/L nifedipine, 1 μmol/L ω‐conotoxin MVIIC, 10 μmol/L mibefradil)) was 48 ± 6 % of control 40 mmol/L KCl‐evoked release. The “greater affinity for T-type VGCCs than for L-type VGCC” value [5] was 12–13 fold and the “effect on 100 μmol/L cinnamaldehyde-induced CGRP release” value ([6]; nifedipine 5 μmol/L, mibefradil dihydrochloride 10 μmol/L, ω‐conotoxin MVIIC 200 nmol/L, ANOVA) was “not significantly altered; also recorded: not significantly affected”.

In the case of COC(=O)C1=C(C)NC(C)=C(C(=O)OC)C1c1ccccc1[N+](=O)[O-] [nifedipine], the EC50 ([2]; ref Fajardo et al. 2008, read-out: EC50 for activation of recombinantly-expressed TRPA1 channels) is given as ~0.4 µM and the EC50 [7] is given as ~30 µM.

With ω‐conotoxin MVIIC the “depolarization-induced CGRP release in the presence of inhibitor” value [4] was 73 ± 8 % of control 40 mmol/L KCl‐evoked release and the “effect on 100 μmol/L cinnamaldehyde-induced CGRP release” value [6] was “not significantly altered; also recorded: not significantly affected”.
